Here are results for two compounds from patent US20100226900A1, “PREVENTION AND TREATMENT OF OSTEOCHONDROSIS IN ANIMALS AND HUMANS” (U.S. Borax Inc., priority 2005, published 2010).

Assay [1] relates to sows and piglets. In kind it is in vivo. Here is the method:
Boron was added to the diet of sows at 1 mg/kg body weight as boric acid. […] Among a group of 95 piglets the birth to weaning mortality was 2 piglets. The usual mortality for this farm was about 5 to 7%. These piglets remained on boron 50 ppm plus ascorbate 125 ppm. One pig was euthanized and examined at a weight of about 85 pounds. […] All bones of the appendicular skeleton were sectioned on the band saw.

For assay [2], the system named is pigs. Conditions: about 100 pigs, 50 ppm boron as boric acid. From the text:
An Iowa farm treated a group of about 100 pigs with 50 ppm boron as boric acid.

In assay [3] the test system is growing swine (osteochondrosis). In words: Boron supplementation and OC-associated lameness in growing swine (Example 1). The assay is classed as in vivo, pig. On the procedure: The basal diet consisted of commercial corn-soy diet containing 10 ppm boron.
Test diet group B was fed a basal diet plus 25 mg/kg boron as sodium borate decahydrate (borax). Test diet group A was fed a basal diet plus 25 mg/kg boron as sodium borate decahydrate (borax) and 250 mg/kg ascorbic acid.
Pigs were weighed at the beginning of the study, 4 weeks later and every 3 weeks until the end of the study. Animals were scored for soundness on a 5-point scale at each weighing. (Five-point scale: 1=no soundness defects; 2=minor soundness issues but still sound enough for retention as breeding animal; 3=not sound enough for retention for breeding but still marketable; 4=unsound, likely to be rejected at slaughter; 5=severely lame, requiring euthanasia for humane reasons.) Grading was done by the caretaker and the investigator at all weighing times. An experienced independent treatment-blind rater also evaluated the soundness of each animal and the ratings he provided were compared with the ratings of the caretaker and investigator by use of Cohen's Kappa test.
The animals were housed in a modern curtain sided barn with deep straw bedding, with ad libitum access to feed and water. Waterers and feeders were on a concrete pad but the remainder of the flooring was deep straw over a ground limestone and sand base. Floor space allowances exceeded the recommendations of the Guide for the Care and Use of Agricultural Animals in Agricultural Research and Teaching, First Revised Edition, 1999. Federation of Animal Science Societies. Savoy, Ill.
The basal diet (no boron supplemented) was analysed and found to contain boron at the rate of 10 ppm which is typical for a corn-soybean meal based diet.
At the end of the study the pigs were transported to a laboratory where they were euthanized and necropsied. Six pigs in each of group B and group A were put on the control diet for 7 days at the end of the study.
At necropsy, samples of liver, heart, kidney, fat, skeletal muscle, proximal tibia, blood, and the rostral snout were retained and frozen at −40° C. prior to chemical analysis. All joints of the axial skeleton were evaluated for the presence of gross lesions of osteochondrosis and graded on a 5 point scale. (5-point scale: 1=no gross abnormalities; 2=minor imperfections in articular conformation or articular reddening present but no cartilage erosions; 3=cartilage intact but surface irregularities of the cartilage are present; 4=fissuring or erosion of articular cartilage is obvious; 5=full thickness cartilage lesions or cartilage flaps, osteochondritis dissecans obviously present).
The proximal femur (femoral head) and articular surfaces and growth plates associated with the stifle, hock, shoulder, elbow and carpus were sectioned with a band saw and approx. 0.5 to 1.0 cm sections fixed in formalin. Bone sections were decalcified with formic acid/sodium citrate, embedded in paraffin and sectioned at 5 microns. Sections were deparaffinized according to standard procedures. Two sections were made from each joint and growth plate and stained with either hematoxylin/eosin (H&E) or with toluidine blue (pH 4)/fast green for evaluation of the articular cartilage, subchondral bone and growth plate.
Mean joint lesion scores, growth rate and soundness scores by treatment and by factors boron and ascorbate were compared using an analysis of variance and t-test as appropriate. Soundness scores were dichotomised into binary categorical variables for lameness (soundness score>2) and for absence of defects (soundness<2), and the binary variables analysed by chi-square and logistic regression.
Tissue specimens stained with H&E were examined microscopically for the presence of lesions of osteochondrosis. Toluidine Blue staining allowed assessment of retention or loss of proteoglycan from the extracellular matrix (ECM) of the cartilage. Each tissue section was scored by a treatment-blind board-certified pathologist. […]

Assay [4] concerns sulfated glycosaminoglycan (sGAG) of cartilage. Put plainly: Glycosaminoglycan study: sGAG in articular cartilage plugs of fed pigs (Example 2). Conditions: pigs fed 50 ppm boron; hock and elbow joints; unsupplemented 5045 ng/g; p<0.01. In kind it is in vivo, pig. Here is the method:
Hock joints and elbow joints were obtained at necropsy from pigs in two feeding groups: one group having been fed a commercial ration supplemented with 50 mg B/kg feed and the other being fed only the standard commercial pig ration.
Cartilage plugs were harvested from the articular surfaces of 40 hock and elbow joints using a #5 (10.5 mm) cork borer. The samples were papain digested and analyzed for concentration of sulfated glycosaminoglycan (sGAG) using a spectrophotometric microplate analysis procedure adapted from Farndale, et al (1986), using a chondrotin sulfate standard. This method measures total sulfated glycosaminoglycan, most of which is chondrotin sulfate and keratan sulfate components of aggrecan. Aggrecan is the large aggregating proteoglycan of cartilage responsible for creating and maintaining the osmotic pressure of cartilage. Quanititation of sGAG concentration thus provides a measure of the weight-bearing and anti-friction properties of cartilage and is a measure of cartilage quality and durability.

In assay [5] the test system is sows and their litters. Put plainly: Sow and litter trial in a commercial swine operation during a PRRSV outbreak (Example 3). The assay is classed as in vivo, pig. Conditions: sows given oral 1 mg boron per pound BW per day. Here is the method:
To test the effect of boron on sows and their litters, a trial was established in a large commercial swine operation during an outbreak of porcine viral reproductive and respiratory disease (PRRSV). Boron was administered orally to a group of 51 sows individually housed in crates at the rate of 1 mg boron per pound BW per day beginning 1 week prior to farrowing and continuing until the piglets were weaned at 14 days of age. […] Boron treatment was supplied as a single daily dosing and was discontinued at weaning. All sows were fed a standard commercial sow diet.

Assay [6] has as its system crossbred pigs. Put plainly: 28-day feeding trial: phosphorus digestibility and excretion, feed conversion (Example 4). The assay is classed as in vivo, pig. On the procedure:
Pigs were randomly allocated to 24 pens of 6 pigs per pen in a thermoneutral controlled environment barn with steel grid flooring. Each pen was equipped with a single-hole feeder. Water was available free-choice from a nipple drinker. […] Feces were collected on the last 3 days of the study from each pen and a pooled aliquot was dried and submitted for chemical analysis. Yttrium oxide was added to the diet at 0.05% and served as a marker for phosphorus digestibility. Pig growth and feed consumption was measured at the end of the study with the pen as the experimental unit. Data was analyzed for effects of boron and calcium by univariate and multivariate analysis of variance and t-tests.

Assay [7] concerns pigs (boron crosslinks, osteochondrosis).
Description: The pigs were evaluated for lameness daily and euthanatized on day 13 and the joints and other organs were examined.
The test system of assay [8] is gestating and lactating sows and their piglets. Put plainly: Reproductive effects in sows: observation and preliminary pilot study (Example 3).
Description: Sows were fed a standard corn-soy diet. Half of the sows received an oral administration of a boron supplement to provide 1 mg boron per kg body weight.
Where [9] appears, read: boron 50 ppm in feed, 3-NPB none, 5 pigs.
Where [10] appears, read: sows fed 50 ppm supplemental boron, late gestation and early lactation.

For the compound `OB(O)O` [boric acid], the “Birth to weaning mortality” value in assay [1] (among a group of 95 piglets, usual mortality of the farm about 5 to 7%) came to 2 piglets. In assay [1] (sows, boron 1 mg/kg body weight as boric acid in diet), the “Outcome in three noticeably and seriously lame sows” value is listed as “became perfectly sound”. Also, in assay [2], the Growth rate entry is “excellent growth rate”. Besides, the Lameness/unsoundness rate result in assay [2] (estimated previous rate about 25 to 30%) is “zero”.

Take `[B]` [boron]: the “Joint health vs basal diet (FIG. 1)” value in assay [3] (25 mg/kg boron as borax vs basal diet) is on record as “healthier joints”. Further, in assay [3] (25 ppm boron in feed (as borax), unsupplemented group 57%), the “Growth plate lesions associated with widening, share of tissues” value amounted to 19%. In addition, the “Articular cartilage lesions (necrosis, hemorrhage, infarction, or streaks), share of tissues” value in assay [3] (25 ppm supplemental B in feed, unsupplemented pigs 21%) was 4%. The “TBlue staining intensity of cartilage (semi-quantitative sGAG content)” value in assay [3] (boron supplemented group vs unsupplemented) is listed as “consistently higher”. Besides, the “Incidence of osteochondrosis-associated lameness” value in assay [3] (growing swine, boron supplementation) is recorded as “effective in reduction”. The Occurrence of osteochondrosis entry in assay [3] (pigs, supplemental boron 25 ppm to 50 ppm (FIGS. 1, 3, 4)) is recorded as “significant reduction”. Besides, in assay [4], the “sGAG concentration in cartilage (dry matter basis)” value is 11050 ng/g. Besides, in assay [5], the “Effect on litter size at birth” value was “no effects” and the “Effect on piglet birth weight” value was “no effects”. Further, the “Likelihood to conceive relative to control sows” value in assay [5] (p=0.04) is on record as 1.2 times. For the same compound, the “Return to estrus, average days quicker than control sows” value in assay [5] (p=0.047) was 1.6 days. In addition, in assay [6] (50 ppm added B in feed, 28 days, no added B 33.4, p 0.017), the “Phosphorus Digestibility (%)” value is reported as 36.3%. Besides, in assay [6] (50 ppm added B in feed, 28 days, no added B 88.1, p 0.028), the “Phosphorus excretion in Feces (g/Kg gain)” value was found to be 74.6 g/Kg gain. Moreover, the “Reduction of phosphorus excretion per unit of production” value in assay [6] (boron added to the diet vs no added boron) is reported as 15%. Further, the “Joint findings at necropsy” value in assay [1] (one pig of about 85 pounds kept on boron 50 ppm plus ascorbate 125 ppm) is on record as “No abnormalities were observed”. Further, in assay [7] (setting [9]), the “Clinical Lameness Score: count of pigs Normal” value is recorded as 5 and the “Clinical Lameness Score: count of pigs with Visible Lameness” value was found to be 0. Besides, the “Prevalence and severity of osteochondrosis lesions in shoulder, stifle, hock and elbow joints” value in assay [7] (supplemental boron, no 3-NPB) was “lowest prevalence of lesions and the lowest severity”. For the same compound, in assay [8] (pilot study, sows given oral 1 mg boron per kg body weight, non-supplemented 8.0 pounds), the “Piglet weight at 12 days of age” value amounted to 8.5 pounds. Also, the Pre-weaning mortality in assay [8] (pilot study, sows given oral 1 mg boron per kg body weight, non-supplemented 23%, preliminary, first 600 pigs) is 16%. In addition, in assay [8] (setting [10]), the “Piglet quality (uniformity, growth, general thrift)” value is given as “improved” and the “Pre-weaning piglet mortality (observation)” value is given as “reduced”.
